According to patent US9499509B2, “Dihydrochalcone derivatives and their use as antibiotic agents” (UNIVERSITÉ DU QUÉBEC À CHICOUTIMI, priority 2012, dated 2016):
Where two headings read alike, the source gives them in different places.

How the values were obtained:
WS-1 cell lines = assay: Cytotoxicity assay on WS-1 (Example 1); conditions: Table 5; WS-1, 48 h
Method: Cytotoxicity assay. The cytotoxicity assay was performed in 96-well plates (BD Falcon). The WS-1 cell lines were provided by ATCC. The WS-1 was cultured in DMEM+10% fetal calf serum. The cells were plated in a volume of 100 μL at a density of 5000 cells per well and incubated at 37° C.+5% CO2 for 24 h to promote cell adhesion.
The plates were incubated at 37° C.+5% CO2 for 48 h. The cells were then washed with 100 μL of HBSS and 150 μL of a 2% resazurin were added to the wells.
The therapeutic index is the ratio between the toxicity on normal cells, in this case fibroblast, and the toxicity on bacteria.

Enterococcus faecalis = assay: Antibiotic assay (resazurin, Example 1), Enterococcus faecalis; type: cell-based; conditions: for IC50: read-out: IC50
Method: (§1) Bacteria Strain. […] The MRSA were obtained as further described below.
(§2) Antibiotic agents. Cyprofloxacin and erythromycin were provided by Sigma-Aldrich. Gentamicin sulfate and vancomycin hydrochloride were provided by Calbiochem.
(§3) Five additional strains were tested: Streptococcus pneumoniae, Streptococcus agalactiae, Streptococcus pyogenes, Enterococcus faecalis and Corynebacterium jeikeium.

Streptococcus pyogenes = assay: Antibiotic assay (resazurin, Example 1), Streptococcus pyogenes; type: cell-based; conditions: for IC50: read-out: IC50
Method: as §1, §2, §3

S. epidermidis = assay: Antibiotic assay (resazurin, Example 1), S. epidermidis strains
Method: The antibiotic assays were performed in 96-well plates (BD Falcon). The bacteria strains were inoculated in Nutrient Broth (BD) for the gram negative bacteria and Tryptic soy broth (BD) with 10% of defibrinated sheep blood (PML microbiological) for gram positive strain. All bacteria strains were dosed by spectrophotometry at 660 nm where 1 D.O=2×10^8 bacteria/mL. All bacteria were plated in their respective broth at a concentration of 450 000 bacteria/mL.
Compounds I, II and III were diluted in methanol and the above-noted antibiotic agents were diluted in water. The solvent concentration was 0.25%, which was not toxic for the bacteria. Compounds I, II and III and the above-noted antibiotic agents were tested at 8 different concentrations.
Each well contained: 100 μL of bacteria, 50 μL of the compounds tested (compound I, II, III or the above-noted antibiotic agent) and 50 μL of a 4% resazurin (Sigma) solution. The plates were incubated at 37° C. for 5 h. The fluorescence was read using a Fluoroskan Ascent™ FL (thermo) using an excitation wavelength of 530 nm and an emission wavelength of 590 nm.
Two different strains of Staphylococcus were tested, namely the S. epidermidis and the S. aureus strains.

S. aureus = assay: Antibiotic assay (resazurin, Example 1), S. aureus strains of Table 3; type: cell-based, Staphylococcus aureus; conditions: for IC50: read-out: IC50
Description: as §1, §2

Streptococcus agalactiae = assay: Antibiotic assay (resazurin, Example 1), Streptococcus agalactiae; type: cell-based; conditions: for IC50: read-out: IC50
Method: as §1, §2, §3

Corynebacterium jeikeium = assay: Antibiotic assay (resazurin, Example 1), Corynebacterium jeikeium; type: cell-based; conditions: Coryne. jeikeium 14139
Method: as §1, §2, §3

[1] = tested on: methicillin-resistant Staphylococcus aureus (MRSA) strains; assay: Antibiotic assay (resazurin, Example 1), MRSA strains; type: cell-based; conditions: for IC50: read-out: IC50
In short: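 Ten MRSA strains isolated from screening swabs (nares, throat, groin pus) of patients at Chicoutimi hospital were tested, with S. aureus wild-type strain ATCC25923 run alongside. Isolates were identified using the Slidex Staph-Kit and API Staph strips. Methicillin resistance was confirmed by PBP2a latex agglutination and by a Kirby-Bauer disk diffusion antibiogram on Muller-Hinton agar at 37° C.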

Streptococcus pneumoniae = assay: Antibiotic assay (resazurin, Example 1), Streptococcus pneumoniae; type: cell-based; conditions: for IC50: read-out: IC50
Method: as §1, §2, §3

Question: Which “WS-1 (toxicity on normal cells, fibroblast)” value (WS-1 cell lines) does the source give for `COc1ccc(CCC(=O)c2c(O)cc(O)c(C/C=C/c3ccc(O)cc3)c2O)cc1` [Compound II] here?
Answer: 27 ± 4

Question: What about the “Minimum Inhibitory Concentration (MIC)” value (Enterococcus faecalis; Ent. Faecalis 14078) of the same molecule?
Answer: (>200) μM

Question: What about the IC50 (Enterococcus faecalis; Ent. Faecalis 14078) of the same molecule?
Answer: > 200 µM

Question: What about the “Minimum Inhibitory Concentration (MIC)” value (Enterococcus faecalis; Ent. Faecalis 14115) of the same molecule?
Answer: (>200) μM

Question: What about the IC50 (Enterococcus faecalis; Ent. Faecalis 14115) of the same molecule?
Answer: > 200 µM

Question: What about the “activity against Enterococcus faecalis” value (Enterococcus faecalis; in words) of the same molecule?
Answer: No activity

Question: And the “Minimum Inhibitory Concentration (MIC)” value (Streptococcus pyogenes; Strep. pyogenes 14149)?
Answer: (>200) μM

Question: What about the IC50 (Streptococcus pyogenes; Strep. pyogenes 14149) of the same molecule?
Answer: > 200 µM

Question: And the “Minimum Inhibitory Concentration (MIC)” value (Streptococcus pyogenes; Strep. pyogenes 14152)?
Answer: (>200) μM

Question: And the IC50 (Streptococcus pyogenes; Strep. pyogenes 14152)?
Answer: 90 ± 7 µM

Question: What about the “activity against Streptococcus pyogenes strain 14152” value (Streptococcus pyogenes; in words) of the same molecule?
Answer: active

Question: And the IC50 (S. epidermidis; S. epidermidis 14069)?
Answer: 5 ± 0.3 µM

Question: And the “Minimum Inhibitory Concentration (MIC)” value (S. epidermidis; S. epidermidis 14069)?
Answer: (12.7) μM

Question: What about the IC50 (S. epidermidis; S. epidermidis 14085) of the same molecule?
Answer: 4.4 ± 0.3 µM

Question: What about the “Minimum Inhibitory Concentration (MIC)” value (S. epidermidis; S. epidermidis 14085) of the same molecule?
Answer: (14.3) μM

Question: What about the IC50 (S. epidermidis; S. epidermidis 14093) of the same molecule?
Answer: 7 ± 0.3 µM

Question: And the “Minimum Inhibitory Concentration (MIC)” value (S. epidermidis; S. epidermidis 14093)?
Answer: (11.2) μM

Question: And the IC50 (S. epidermidis; S. epidermidis 14134)?
Answer: 3.8 ± 0.6 µM

Question: And the “Minimum Inhibitory Concentration (MIC)” value (S. epidermidis; S. epidermidis 14134)?
Answer: (13.5) μM

Question: What about the IC50 (S. epidermidis; S. epidermidis 14143) of the same molecule?
Answer: 5.8 ± 0.2 µM

Question: What about the “Minimum Inhibitory Concentration (MIC)” value (S. epidermidis; S. epidermidis 14143) of the same molecule?
Answer: (10.9) μM

Question: And the “activity on S. epidermidis compared with ciprofloxacin” value (S. epidermidis; in words)?
Answer: more active than ciprofloxacin

Question: And the “Minimum Inhibitory Concentration (MIC)” value (S. aureus; S. aureus 14094)?
Answer: (6.2) μM

Question: What about the IC50 (S. aureus; S. aureus 14094) of the same molecule?
Answer: 3.5 ± 0.3 µM

Question: What about the “Minimum Inhibitory Concentration (MIC)” value (S. aureus; S. aureus 14108) of the same molecule?
Answer: (6.81) μM

Question: What about the IC50 (S. aureus; S. aureus 14108) of the same molecule?
Answer: 3.3 ± 0.2 µM

Question: What about the “Minimum Inhibitory Concentration (MIC)” value (S. aureus; S. aureus 14118) of the same molecule?
Answer: (5.05) μM

Question: What about the “Minimum Inhibitory Concentration (MIC)” value (S. aureus; S. aureus 14154) of the same molecule?
Answer: (4.88) μM

Question: What about the IC50 (S. aureus; S. aureus 14154) of the same molecule?
Answer: 2 ± 0.1 µM

Question: What about the “Minimum Inhibitory Concentration (MIC)” value (Streptococcus agalactiae; Strep. agalactiae 14150) of the same molecule?
Answer: (>200) μM

Question: And the IC50 (Streptococcus agalactiae; Strep. agalactiae 14150)?
Answer: 169 ± 3 µM

Question: What about the “Minimum Inhibitory Concentration (MIC)” value (Streptococcus agalactiae; Strep. agalactiae 14151) of the same molecule?
Answer: (>200) μM

Question: And the IC50 (Streptococcus agalactiae; Strep. agalactiae 14151)?
Answer: > 200 µM

Question: What about the “Minimum Inhibitory Concentration (MIC)” value (Streptococcus agalactiae; Strep. agalactiae 14153) of the same molecule?
Answer: (>200) μM

Question: What about the IC50 (Streptococcus agalactiae; Strep. agalactiae 14153) of the same molecule?
Answer: > 200 µM

Question: And the “activity against Streptococcus agalactiae strain 14150” value (Streptococcus agalactiae; in words)?
Answer: active

Question: What about the “Minimum Inhibitory Concentration (MIC)” value (Corynebacterium jeikeium) of the same molecule?
Answer: (112) μM

Question: And the “Minimum Inhibitory Concentration (MIC)” value ([1]; MRSA 1)?
Answer: (5.34) μM

Question: What about the IC50 ([1]; MRSA 1) of the same molecule?
Answer: 2.5 ± 0.2 µM

Question: What about the “Minimum Inhibitory Concentration (MIC)” value ([1]; MRSA 2) of the same molecule?
Answer: (5.57) μM

Question: What about the IC50 ([1]; MRSA 2) of the same molecule?
Answer: 2.6 ± 0.2 µM

Question: What about the “Minimum Inhibitory Concentration (MIC)” value ([1]; MRSA 3) of the same molecule?
Answer: (5.29) μM

Question: And the IC50 ([1]; MRSA 3)?
Answer: 2.6 ± 0.2 µM

Question: What about the “Minimum Inhibitory Concentration (MIC)” value ([1]; MRSA 4) of the same molecule?
Answer: (4.61) μM

Question: What about the IC50 ([1]; MRSA 4) of the same molecule?
Answer: 2.4 ± 0.1 µM

Question: What about the “Minimum Inhibitory Concentration (MIC)” value ([1]; MRSA 5) of the same molecule?
Answer: (4.86) μM

Question: What about the IC50 ([1]; MRSA 5) of the same molecule?
Answer: 2.3 ± 0.4 µM

Question: And the “Minimum Inhibitory Concentration (MIC)” value ([1]; MRSA 6)?
Answer: (5.22) μM

Question: And the IC50 ([1]; MRSA 6)?
Answer: 2.3 ± 0.2 µM

Question: And the “Minimum Inhibitory Concentration (MIC)” value ([1]; MRSA 7)?
Answer: (4.34) μM

Question: And the IC50 ([1]; MRSA 7)?
Answer: 2.5 ± 0.2 µM

Question: And the “Minimum Inhibitory Concentration (MIC)” value ([1]; MRSA 8)?
Answer: (4.84) μM

Question: And the IC50 ([1]; MRSA 8)?
Answer: 2.3 ± 0.2 µM

Question: What about the “Minimum Inhibitory Concentration (MIC)” value ([1]; MRSA 9) of the same molecule?
Answer: (5.26) μM

Question: What about the IC50 ([1]; MRSA 9) of the same molecule?
Answer: 2.5 ± 0.2 µM

Question: What about the “Minimum Inhibitory Concentration (MIC)” value ([1]; MRSA 10) of the same molecule?
Answer: (5.07) μM

Question: And the IC50 ([1]; MRSA 10)?
Answer: 3.2 ± 0.2 µM

Question: What about the “Minimum Inhibitory Concentration (MIC)” value (Streptococcus pneumoniae; Strep. pneumoniae 14070) of the same molecule?
Answer: (122) μM

Question: And the IC50 (Streptococcus pneumoniae; Strep. pneumoniae 14070)?
Answer: 54 ± 4 µM

Question: What about the “Minimum Inhibitory Concentration (MIC)” value (Streptococcus pneumoniae; Strep. pneumoniae 14112) of the same molecule?
Answer: (169) μM

Question: And the IC50 (Streptococcus pneumoniae; Strep. pneumoniae 14112)?
Answer: 74 ± 6 µM

Question: And the “Minimum Inhibitory Concentration (MIC)” value (Streptococcus pneumoniae; Strep. pneumoniae 14138)?
Answer: (>200) μM

Question: And the IC50 (Streptococcus pneumoniae; Strep. pneumoniae 14138)?
Answer: > 200 µM

Question: And the “Minimum Inhibitory Concentration (MIC)” value (Streptococcus pneumoniae; Strep. pneumoniae 14144)?
Answer: (>200) μM

Question: And the IC50 (Streptococcus pneumoniae; Strep. pneumoniae 14144)?
Answer: > 200 µM

Question: And the “Minimum Inhibitory Concentration (MIC)” value (Streptococcus pneumoniae; Strep. pneumoniae 14148)?
Answer: (200) μM

Question: What about the IC50 (Streptococcus pneumoniae; Strep. pneumoniae 14148) of the same molecule?
Answer: 83 ± 7 µM

Question: And the “activity against Streptococcus pneumoniae 14070 strain” value (Streptococcus pneumoniae; in words)?
Answer: active

Question: And the “activity against Streptococcus pneumoniae strain 14144” value (Streptococcus pneumoniae; in words)?
Answer: not active
